Each structure is given as a SMILES string.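 How tested: cells in 96-well plates exposed to compound for 48 hours at five concentrations. GI50 marks 50% less growth. TGI marks complete inhibition of growth.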

What all share (assay): inhibition of tumour cell growth, NCI panel, 48 h
Test [1] has as its system HCC-2998 colon.
For test [2], the system named is HCT-15 colon.
The test system of test [3] is HS 578T breast.
Test [4] concerns HT29 colon.
Test [5] deals with IGROV1 ovarian.
Test [6] has as its system KM12 colon.
Test [7] concerns MCF7 breast.
For test [8], the system named is MDA-N.
The test system of test [9] is SF-295 CNS.
Test [10] relates to SF-539 CNS.
Test [11] relates to SN12C renal.
For test [12], the system named is SNB-19 CNS.
The subject of test [13] is SR leukemia.
Test [14] has as its system U251 CNS.
Test [15] has as its system UACC-257 melanoma.
Test [16] has as its system UO-31 renal.

Regarding `Cc1cc(NS(=O)(=O)c2ccc(Nc3c4ccccc4nc4ccc(C(=O)Nc5ccc(S(N)(=O)=O)cc5)cc34)cc2)no1`, the TGI in [1], in test [2], in test [3], in [4], in test [5] and in test [6] was greater than 100 µM throughout. The TGI in test [7], in [8], in [9], in test [10], in test [11] and in [12] was greater than 100 µM each time. Besides, the TGI in [13], in test [14], in [15] and in test [16] was greater than 100 µM each time.
Turning to `COc1cc2cc(C(=O)N3CC(CCl)c4ccccc43)[nH]c2c(OC)c1OC` (stereo not drawn), the TGI in [1] is greater than 100 µM; in [2], greater than 100 µM; in test [3] it was greater than 100 µM; in [4], greater than 57.9 µM; in [5] it was greater than 100 µM; in test [6], greater than 100 µM. The TGI in test [7] is greater than 100 µM; in test [8], greater than 100 µM; in test [9], greater than 100 µM; in test [10] it was greater than 100 µM; in test [11] it was 55.2 µM; in test [12], greater than 100 µM. Further, the TGI in test [13], in test [14], in test [15] and in [16] was greater than 100 µM each time.
Regarding `CCOC(=O)/C=C(/C(=O)OCC)n1ccc(=O)n(/C(=C/C(=O)OCC)C(=O)OCC)c1=O`, the TGI in test [1] amounted to 35 µM; in test [2], 6.32 µM; in test [3], 45.5 µM; in test [4] it was 26.8 µM; in test [5], 31.4 µM; in test [6], 33.9 µM. The TGI in test [7] came to 19.9 µM; in test [8], 26.7 µM; in test [9], 55.1 µM; in [10] it was 34.2 µM; in test [11], 17.9 µM; in [12], 38.3 µM. The TGI is 13.5 µM in test [13], 29.4 µM in test [14], 24.5 µM in [15] and 28.9 µM in test [16].
Turning to `C=C1C(=O)O[C@H]2[C@H]1CC(=O)/C(C)=C/CC[C@@]1(C)O[C@@H]21`, the TGI is 6.02 µM in [1]; 1.56 µM in test [2]; 8.62 µM in test [3]; 4.53 µM in test [4]; 6.27 µM in test [5]; 7.09 µM in test [6]. Moreover, the TGI in [7] stood at 1.99 µM; in test [8], 1.27 µM; in test [9] it was 31.6 µM; in [10], 4.6 µM; in test [11] it was 3.93 µM; in [12], 13.8 µM. For the same compound, the TGI in [13] amounted to 7.74 µM; in test [14], 13.6 µM; in [15] it was 5.57 µM; in [16], 2.29 µM. The GI50 in test [15] is 2 µM.
With `COc1cc2c(cc1OCc1ccccc1)NC(=S)[C@@H]1CCCN1C2=S`, the TGI in test [1], in [2], in test [3], in test [4], in test [5] and in test [6] was greater than 100 µM each time. For the same compound, the TGI in [7], in [8], in test [9], in test [10], in test [11] and in test [12] was greater than 100 µM throughout. Moreover, the TGI in [13], in test [14], in test [15] and in test [16] was greater than 100 µM throughout.
As for `C=CC[C@@]1(C)CCCCCCCCC[C@@](C)(CC=C)C1=O`, the TGI in test [1] is 35 µM; in [2], greater than 100 µM; in [3] it was 42.9 µM; in test [4] it was 38.2 µM; in test [5] it was greater than 100 µM; in [6], 94.5 µM. In addition, the TGI in [7] is greater than 100 µM; in test [8], greater than 100 µM; in test [9] it was 37.4 µM; in [10] it was greater than 100 µM; in test [11], 76.8 µM; in [12] it was 45 µM. For the same compound, the TGI in [13] is 63.7 µM; in test [14] it was 33 µM; in test [15], 58.6 µM; in test [16], greater than 100 µM.
Turning to `COc1ccc(C2SC(C)C(=O)N2c2nc(-c3nc(-c4ccc(Cl)cc4)cs3)cs2)cc1` (stereo not drawn), the TGI in [1], in [2], in test [3], in test [4], in [5] and in test [6] was greater than 100 µM each time. Also, the TGI in test [7], in test [8], in test [9], in test [10], in test [11] and in [12] was greater than 100 µM in each case. Also, the TGI in test [13], in test [14], in test [15] and in test [16] was greater than 100 µM each time.

The values are drawn from PubChem BioAssay (NCI).
